Reference: US11279712B2, “Macrocyclic compounds that inhibit MCL-1 protein” (AMGEN INC., priority 2017, dated 2022)
Read-outs that look alike come from different tables or passages of the source.

What was measured:
[1] = target: Mcl-1/Bim interaction (recombinant human Mcl-1 residues 171-327) (Homo sapiens (Human), UniProt Q07820); experiment: Cell Free Mcl-1:Bim Affinity Assay (Mcl-1 HTRF); assay type: binding; conditions: TR-FRET, 0.1 nM Mcl-1(171-327), 0.05 nM biotin-Bim(51-76)
Experimental: Cell Free Mcl-1:Bim Affinity Assay (Mcl-1 HTRF)
The inhibition of the Mcl-1/Bim interaction was measured using a time-resolved fluorescence resonance energy transfer (TR-FRET) assay. The recombinant human Mcl-1 (C-terminally 6×His tagged Mcl-1 containing residues 171-327) was generated at Amgen Inc (Thousand Oaks, Calif.). A biotinylated peptide derived from human Bim (residues 51-76) was purchased from CPC Scientific (San Jose, Calif.). The TR-FRET assay was conducted in a 384-well white OptiPlate™ (PerkinElmer, Waltham, Mass.) in a total volume of 40 μL. The reaction mixture contained 0.1 nM Mcl-1(171-327), 0.05 nM biotin-Bim(51-76), 0.05 nM LANCES Eu-W1024 Anti-6×His (PerkinElmer), 0.072 nM Streptavidin-Xlent (Cisbio, Bedford, Mass.), and serially diluted test compounds in the binding buffer of 20 mM Hepes, pH 7.5, 150 mM NaCl, 0.016 mM Brij®35, and 1 mM dithiothreitol. Test compounds were pre-incubated with Mcl-1(171-327) and biotin-Bim (51-76) for 60 min before addition of the detection mixture (LANCE® Eu-W1024 Anti-6×His and Streptavidin-Xlent). The reaction plates were further incubated overnight and then were read on an Envision® multimode reader (PerkinElmer). Fluorescence signals were measured at 620 nm (40-nm bandwidth) and 665 nm (7.5-nm bandwidth) with a 60 μs delay after excitation at 320 nm (75-nm bandwidth). The signal ratio at 665/620 nm corresponded to the Mcl-1/Bim interaction and was used in all data analyses. The IC50 values of test compounds were determined from duplicate data by analyzing competition curves using a four-parameter sigmoidal model in GraphPad Prism (GraphPad Software, San Diego, Calif.) or in Genedata Screener® (Genedata, Basel, Switzerland).

[2] = tested on: OPM-2 human multiple myeloma cell line; experiment: Cell Viability Assay (OPM-2 10 FBS); assay type: cell-based; conditions: OPM-2 cells, CellTiter-Glo, read-out: OPM-2 10% FBS IC50 IP
Experimental: Cell Viability Assay (OPM-2 10 FBS)
The human multiple myeloma cell line, OPM-2, was cultured in complete growth medium containing RPMI 1640 and 10% fetal bovine serum (FBS). Cells were seeded into 384-well plates at 3000 cells/well density in complete growth medium containing 10% FBS, and incubated for 16 h with serially diluted test compounds in a 37° C. incubator with 5% CO2. Cell viability was tested using CellTiter-Glo® assay (Promega, Madison, Wis.) according to the manufacturer recommendations. Luminescence was determined using an EnVision® Multilabel plate reader 25 min after the addition of detection reagent. IC50 values were then calculated with Xlfit using a logistical 4-parameter fit model in GraphPad Prism (GraphPad Software, San Diego, Calif.) or in Genedata Screener® (Genedata, Basel, Switzerland).

Mcl-1/Bim interaction (recombinant human Mcl-1 residues 171-327), sequence (Q07820 171-327): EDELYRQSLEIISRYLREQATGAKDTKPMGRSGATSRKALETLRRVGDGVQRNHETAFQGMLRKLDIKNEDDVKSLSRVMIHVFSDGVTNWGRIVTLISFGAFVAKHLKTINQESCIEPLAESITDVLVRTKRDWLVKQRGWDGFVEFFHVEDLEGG

| Structure (SMILES) | IC50 [1] [nM] | IC50 ([2]; 16 h) [nM] | IC50 ([2]; Homo sapiens, OPM-2, 16 h) [nM] |
| --- | --- | --- | --- |
| C[C@@H]1[C@@H](C)CCC[C@H](CN2CCN3CCN(C)C[C@@H]3C2)[C@@H]2CC[C@H]2CN2C[C@@]3(CCCc4cc(Cl)ccc43)COc3ccc(cc32)C(=O)NS1(=O)=O (single isomer, unassigned) [Example 1] | 0.225 | 117 | – |
| CC(=O)N1CCN2CCN(C[C@H]3CCC[C@H](C)[C@@H](C)S(=O)(=O)NC(=O)c4ccc5c(c4)N(C[C@@H]4CC[C@@H]34)C[C@@]3(CCCc4cc(Cl)ccc43)CO5)C[C@H]2C1 (single isomer, unassigned) [Example 4] | 0.212 | 172 | – |
| C[C@@H]1[C@@H](C)CCC[C@H](CN2CCN(C)CC2)[C@@H]2CC[C@H]2CN2C[C@@]3(CCCc4cc(Cl)ccc43)COc3ccc(cc32)C(=O)NS1(=O)=O (single isomer, unassigned) [Example 5] | 0.622 | 173 | – |
| C[C@@H]1[C@@H](C)CCC[C@H](CN2CCN3CCN(C)C[C@@H]3C2)[C@@H]2CC[C@H]2CN2C[C@@]3(CCCc4cc(Cl)ccc43)COc3ccc(cc32)C(=O)NS1(=O)=O (single isomer, unassigned) [Example 6] | 0.353 | 177 | – |
| COCCN1CCN(C[C@H]2CCC[C@H](C)[C@@H](C)S(=O)(=O)NC(=O)c3ccc4c(c3)N(C[C@@H]3CC[C@@H]23)C[C@@]2(CCCc3cc(Cl)ccc32)CO4)CC1=O (single isomer, unassigned) [Example 7] | 0.181 | 180 | – |
| C[C@@H]1[C@@H](C)CCC[C@@H](C(=O)N2CCOCC2)[C@@H]2CC[C@H]2CN2C[C@@]3(CCCc4cc(Cl)ccc43)COc3ccc(cc32)C(=O)NS1(=O)=O (single isomer, unassigned) [Example 8] | 0.126 | 221 | – |
| C[C@@H]1[C@@H](C)CCC[C@H](C(=O)N2CCC2)[C@@H]2CC[C@H]2CN2C[C@@]3(CCCc4cc(Cl)ccc43)COc3ccc(cc32)C(=O)NS1(=O)=O (single isomer, unassigned) [Example 9] | 0.246 | – | 223 |
| C[C@@H]1[C@@H](C)CCC[C@H](CN2CCN3CCOC[C@@H]3C2)[C@@H]2CC[C@H]2CN2C[C@@]3(CCCc4cc(Cl)ccc43)COc3ccc(cc32)C(=O)NS1(=O)=O (single isomer, unassigned) [Example 10] | 0.291 | – | 227 |
| COCCNC(=O)[C@H]1CCC[C@H](C)[C@@H](C)S(=O)(=O)NC(=O)c2ccc3c(c2)N(C[C@@H]2CC[C@H]21)C[C@@]1(CCCc2cc(Cl)ccc21)CO3 (single isomer, unassigned) [Example 11] | 0.237 | – | 242 |
| COCCN1CCN(C[C@H]2CCC[C@H](C)[C@@H](C)S(=O)(=O)NC(=O)c3ccc4c(c3)N(C[C@@H]3CC[C@@H]23)C[C@@]2(CCCc3cc(Cl)ccc32)CO4)CC1 (single isomer, unassigned) [Example 12] | 0.542 | 254 | – |
| C[C@@H]1[C@@H](C)CCC[C@H](CN2CC(N(C)C)C2)[C@@H]2CC[C@H]2CN2C[C@@]3(CCCc4cc(Cl)ccc43)COc3ccc(cc32)C(=O)NS1(=O)=O (single isomer, unassigned) [Example 13] | 0.77 | – | 258 |
| CC(=O)N1CCN2CCN(C[C@H]3CCC[C@H](C)[C@@H](C)S(=O)(=O)NC(=O)c4ccc5c(c4)N(C[C@@H]4CC[C@@H]34)C[C@@]3(CCCc4cc(Cl)ccc43)CO5)C[C@H]2C1 (single isomer, unassigned) [Example 15] | 0.185 | 277 | – |
| C[C@@H]1[C@@H](C)CCC[C@H](CN2CC3(CCCN3C)C2)[C@@H]2CC[C@H]2CN2C[C@@]3(CCCc4cc(Cl)ccc43)COc3ccc(cc32)C(=O)NS1(=O)=O (single isomer, unassigned) [Example 16] | 0.317 | 283 | – |
| C[C@@H]1[C@@H](C)CCC[C@H](CN2CC(C)(N(C)C)C2)[C@@H]2CC[C@H]2CN2C[C@@]3(CCCc4cc(Cl)ccc43)COc3ccc(cc32)C(=O)NS1(=O)=O (single isomer, unassigned) [Example 17] | 0.881 | – | 284 |
| C[C@@H]1[C@@H](C)CCC[C@H](CN2CCN3CCN(C)C[C@@H]3C2)[C@@H]2CC[C@H]2CN2C[C@@]3(CCCc4cc(Cl)ccc43)COc3ccc(cc32)C(=O)NS1(=O)=O (single isomer, unassigned) [Example 19] | 0.532 | 303 | – |
| CC(=O)N1CCN(C[C@H]2CCC[C@H](C)[C@@H](C)S(=O)(=O)NC(=O)c3ccc4c(c3)N(C[C@@H]3CC[C@@H]23)C[C@@]2(CCCc3cc(Cl)ccc32)CO4)CC1 (single isomer, unassigned) [Example 22] | 0.375 | – | 305 |
| C[C@@H]1[C@@H](C)CCC[C@H](CO)[C@@H]2CC[C@H]2CN2C[C@@]3(CCCc4cc(Cl)ccc43)COc3ccc(cc32)C(=O)NS1(=O)=O (single isomer, unassigned) [Example 23] | 0.182 | 305 | – |
| C[C@@H]1[C@@H](C)C/C=C/[C@H](CO)[C@@H]2CC[C@H]2CN2C[C@@]3(CCCc4cc(Cl)ccc43)COc3ccc(cc32)C(=O)NS1(=O)=O (single isomer, unassigned) [Example 24] | 0.224 | 322 | – |
| C[C@@H]1[C@@H](C)C/C=C/[C@H](CO)[C@@H]2CC[C@H]2CN2C[C@@]3(CCCc4cc(Cl)ccc43)COc3ccc(cc32)C(=O)NS1(=O)=O (single isomer, unassigned) [Example 26] | 0.336 | 342 | – |
| COCC[C@@H]1[C@@H](C)CCC[C@H](CO)[C@@H]2CC[C@H]2CN2C[C@@]3(CCCc4cc(Cl)ccc43)COc3ccc(cc32)C(=O)NS1(=O)=O (single isomer, unassigned) [Example 29] | 0.226 | 366 | – |
| C[C@@H]1[C@@H](C)CCC[C@H](CN2CCN3CCOC[C@H]3C2)[C@@H]2CC[C@H]2CN2C[C@@]3(CCCc4cc(Cl)ccc43)COc3ccc(cc32)C(=O)NS1(=O)=O (single isomer, unassigned) [Example 31] | 0.261 | 376 | – |
| C[C@@H]1[C@@H](C)CCC[C@H](CN2CCN(C)CC2)[C@@H]2CC[C@H]2CN2C[C@@]3(CCCc4cc(Cl)ccc43)COc3ccc(cc32)C(=O)NS1(=O)=O (single isomer, unassigned) [Example 34] | 0.602 | 417 | – |
| CC(=O)N1CCN2CCN(C[C@H]3CCC[C@H](C)[C@@H](C)S(=O)(=O)NC(=O)c4ccc5c(c4)N(C[C@@H]4CC[C@@H]34)C[C@@]3(CCCc4cc(Cl)ccc43)CO5)C[C@H]2C1 (single isomer, unassigned) [Example 35] | 0.05 | 421 | – |
| C[C@@H]1[C@@H](C)C/C=C/[C@H](CN2CCN3CCOC[C@@H]3C2)[C@@H]2CC[C@H]2CN2C[C@@]3(CCCc4cc(Cl)ccc43)COc3ccc(cc32)C(=O)NS1(=O)=O (single isomer, unassigned) [Example 37] | 0.288 | – | 451 |
| C[C@@H]1[C@@H](C)CCC[C@H](C(=O)N2CC(F)(F)C2)[C@@H]2CC[C@H]2CN2C[C@@]3(CCCc4cc(Cl)ccc43)COc3ccc(cc32)C(=O)NS1(=O)=O (single isomer, unassigned) [Example 38] | 0.517 | – | 525 |
| C[C@@H]1[C@@H](C)CCC[C@H](CN2CCN3CCN(C(=O)OC(C)(C)C)C[C@@H]3C2)[C@@H]2CC[C@H]2CN2C[C@@]3(CCCc4cc(Cl)ccc43)COc3ccc(cc32)C(=O)NS1(=O)=O (stereo in doubt) [Example 64] | – | – | 1500 |
| C[C@@H]1[C@@H](C)CCC[C@@H](CC(=O)N2CCN3CCOC[C@H]3C2)[C@@H]2CC[C@H]2CN2C[C@@]3(CCCc4cc(Cl)ccc43)COc3ccc(cc32)C(=O)NS1(=O)=O [Example 2, (1s,3′r,6′s,7′s,11′s,12′r)-6-chloro-7′-(2-((9ar)-hexahydropyrazino[2,1-c][1,4]oxazin-8(1h)-yl)-2-oxoethyl)-11′,12′-dimethyl-3,4-dihydro-2h,15′h-spiro[naphthalene-1,22′-[20]oxa[13]thia[1,14]diazatetracyclo[14.7.2.0˜3,6˜0.0˜19,24˜]pentacosa[16,18,24]trien]-15′-one 13′,13′-dioxide trifluoroacetic acid] | – | – | 134 |
